Test results from patent publication US20080261911A1, “Uses of diphenyl/diphenylamine carboxylic acids” (priority 2006, published 2008).

Experiments:
[1] = test system: VEGFR1 mRNA; test: VEGFR1 mRNA in Panc-1 cells, semi-quantitative RT-PCR; type: cell-based; conditions: 50 μM, 24 h
Method: FIGS. 17A-17D show effects of tolfenamic acid on the VEGFR1 promoter and mRNA expression. Transfection with pVEGFR1-A (FIG. 17A), pVEGFR1-B (FIG. 17B), and pVEGFR1-C (FIG. 17C). Panc-1 cells were transfected with pVEGFR1 constructs, treated with DMSO, 50 μM ampiroxicam, or 50 μM tolfenamic acid, and luciferase activity was determined as described in Materials and Methods. […] Results are shown for a single experiment and similar data was obtained in replicate experiments.

[2] = test system: SEG-1 esophageal cancer cells; test: Western blot of Sp and Sp-dependent proteins in SEG-1 esophageal cancer cells; type: cell-based; conditions: SEG-1 cells, 25-100 μM
Method: Cells are washed once with phosphate buffered saline PBS and collected by scraping in 200 μL of lysis buffer [50 mM HEPES, 0.5M sodium chloride, 1.5 mM magnesium chloride, 1 mM EGTA, 10% (v/v) glycerol, 1% Triton X-100, 5 μL/ml of Protease Inhibitor Cocktail (Sigma)]. The lysates from the cells are incubated on ice for 1 hr with intermittent vortexing followed by centrifugation at 40,000 g for 10 min at 4° C. Equal amounts of protein (60 μg) from each treatment group are diluted with loading buffer, boiled and loaded onto 10 and 12.5% SDS-polyacrylamide gel. For vascular endothelial growth factor immunoblots, 100 μg of protein are used. Samples are electrophoresed, transferred to membranes, and proteins detected by incubation with polyclonal primary antibodies Sp1, Sp3, Sp4, HDAC, VEGF (a-20), c-Met, surviving, VEGF, cleaved PARP, and β-tubulin (H-235) followed by blotting with appropriate horseradish peroxidase-conjugated secondary antibody as previously described (Abdelrahim et al, 2004). After autoradiography, band intensities are determined by a scanning laser densitometer (Sharp Electronics Corporation, Mahwah, N.J.) using ZERO-D SCANALYTICS software (Scanalytics Corporation, Billerica, Mass.).

Structure (SMILES): Cc1c(Cl)cccc1Nc1ccccc1C(=O)O [tolfenamic acid]
- VEGFR1 mRNA levels [1]: decreased VEGFR1 mRNA levels
- apoptosis as shown by PARP cleavage [2]: induced apoptosis
- expression of Sp-dependent proteins VEGF, survivin, and c-Met [2]: decreased expression of Sp-dependent proteins vascular endothelial growth factor (VEGF), survivin, and c-Met
- protein expression of Sp1, Sp3, and Sp4 [2]: decreased protein expression of Sp1, Sp3, and Sp4
